# Measured values as given in US10633348B2, “Methods to treat lymphoplasmacytic lymphoma” (Dana-Farber Cancer Institute, Inc., priority 2013, dated 2020).
# Where two headings read alike, the source gives them in different places.
# Key:
# Assay type in all cases: cell-based
# OSR1 = system: OSR1
# ITPK1 = system: ITPK1
# ILK = system: ILK
# RAF1 = system: RAF1
# MAP3K5 = system: MAP3K5
# MAP3K2 = system: MAP3K2
# MAST1, MAST2 = test: KiNativ kinase profiling in A375 cells; details: Lys2, SEQ ID NO 96, 1.0 μM
# ROCK1, ROCK2 = test: KiNativ kinase profiling in A375 cells; details: Lys2, SEQ ID NO 163, 1.0 μM
# PEK = system: PEK
# CAMK1D = system: CAMK1D
# MAP3K2, MAP3K3 = test: KiNativ kinase profiling in A375 cells; details: Lys2, SEQ ID NO 87, 1.0 μM
# MAP3K3 = system: MAP3K3
# JAK1 domain2 = system: JAK1 domain2
# STLK5 = system: STLK5
# BTK = system: BTK
# MPSK1 = system: MPSK1
# MARK3 = system: MARK3
# FRAP = system: FRAP
# PCTAIRE2, PCTAIRE3 = test: KiNativ kinase profiling in A375 cells; details: Lys1, SEQ ID NO 135, 1.0 μM
# CDK4 = system: CDK4
# PFTAIRE1 = system: PFTAIRE1
# [1] = system: RSK1 domain1, RSK2 domain1, RSK3 domain1; test: KiNativ kinase profiling in A375 cells; details: Lys2, SEQ ID NO 165, 1.0 μM
# eEF2K = system: eEF2K
# MST4 = system: MST4
# MAP2K4 = system: MAP2K4
# MAP2K1 = system: MAP2K1
# IRAK4 = system: IRAK4
# NEK9 = system: NEK9
# CDK11, CDK8 = test: KiNativ kinase profiling in A375 cells; details: Lys2, SEQ ID NO 20, 1.0 μM
# ULK1 = system: ULK1
# p38d, p38g = test: KiNativ kinase profiling in A375 cells; details: Lys2, SEQ ID NO 130, 1.0 μM
# SMG1 = system: SMG1
# MST2 = system: MST2
# SRPK1 = system: SRPK1
# MET = system: MET
# GCK = system: GCK
# CDK7 = system: CDK7
# p70S6Kb = system: p70S6Kb
# PIK3C2B = system: PIK3C2B
# MAP3K4 = system: MAP3K4
# EPHB2 = system: EPHB2
# [2] = system: 260 kinases in A375 cells; details: 1.0 μM
smiles,measurement,setting,value
"CCN1CCN(Cc2ccc(NC(=O)c3ccc(C)c(Oc4cc(N)ncn4)c3)cc2C(F)(F)F)CC1 [(A-4), 3-((6-aminopyrimidin-4-yl)oxy)-N-(4-((4-ethylpiperazin-1-yl)methyl)-3-(trifluoromethyl)phenyl)-4-methylbenzamide]",inhibition of kinase labeling,OSR1,−11.1%
same,inhibition of kinase labeling,ITPK1,1.2%
same,inhibition of kinase labeling,ILK,5.2%
same,inhibition of kinase labeling,RAF1,36.6%
same,inhibition of kinase labeling,MAP3K5,−30.4%
same,inhibition of kinase labeling,MAP3K2,4.2%
same,inhibition of kinase labeling,"MAST1, MAST2",35.6%
same,inhibition of kinase labeling,"ROCK1, ROCK2",22.0%
same,inhibition of kinase labeling,PEK,9.4%
same,inhibition of kinase labeling,CAMK1D,−6.0%
same,inhibition of kinase labeling,"MAP3K2, MAP3K3",3.2%
same,inhibition of kinase labeling,MAP3K3,3.7%
same,inhibition of kinase labeling,JAK1 domain2,−6.2%
same,inhibition of kinase labeling,STLK5,5.0%
same,inhibition of kinase labeling,BTK,−18.8%
same,inhibition of kinase labeling,MPSK1,16.1%
same,inhibition of kinase labeling,MARK3,−26.1%
same,inhibition of kinase labeling,FRAP,−7.5%
same,inhibition of kinase labeling,"PCTAIRE2, PCTAIRE3",11.7%
same,inhibition of kinase labeling,CDK4,17.4%
same,inhibition of kinase labeling,PFTAIRE1,4.3%
same,inhibition of kinase labeling,[1],−17.7%
same,inhibition of kinase labeling,eEF2K,−30.5%
same,inhibition of kinase labeling,MST4,6.2%
same,inhibition of kinase labeling,MAP2K4,−14.1%
same,inhibition of kinase labeling,MAP2K1,11.4%
same,inhibition of kinase labeling,IRAK4,1.9%
same,inhibition of kinase labeling,NEK9,−1.2%
same,inhibition of kinase labeling,"CDK11, CDK8",50.0%
same,inhibition of kinase labeling,ULK1,−6.0%
same,inhibition of kinase labeling,"p38d, p38g",62.5%
same,inhibition of kinase labeling,SMG1,−4.0%
same,inhibition of kinase labeling,MST2,−6.2%
same,inhibition of kinase labeling,SRPK1,−34.1%
same,inhibition of kinase labeling,MET,−21.0%
same,inhibition of kinase labeling,GCK,94.9%
same,inhibition of kinase labeling,CDK7,3.9%
same,inhibition of kinase labeling,p70S6Kb,8.2%
same,inhibition of kinase labeling,PIK3C2B,24.0%
same,inhibition of kinase labeling,MAP3K4,19.2%
same,inhibition of kinase labeling,EPHB2,−12.8%
"CCN1CCN(Cc2ccc(NC(=O)c3ccc(C)c(Oc4ccnc(Nc5cnn(C)c5)n4)c3)cc2C(F)(F)F)CC1 [(A-14), N-(4-((4-ethylpiperazin-1-yl)methyl)-3-(trifluoromethyl)phenyl)-4-methyl-3-((2-((1-methyl-1H-pyrazol-4-yl)amino)pyrimidin-4-yl)oxy)benzamide]",KiNativ inhibition,"[2]; AKT2, AKT3, ATP Loop, SEQ ID NO 204",−19.7%
same,KiNativ inhibition,"[2]; AMPKa1, AMPKa2, Lys2, SEQ ID NO 205",−17.5%
same,KiNativ inhibition,"[2]; AurA, AurB, AurC, ATP Loop, SEQ ID NO 211",−2.4%
same,KiNativ inhibition,"[2]; CDK11, CDK8, Lys2, SEQ ID NO 224",49.2%
same,KiNativ inhibition,"[2]; CK1g1, CK1g2, CK1g3, ATP Loop, SEQ ID NO 235",1.3%
same,KiNativ inhibition,"[2]; CK1d, CK1e, Lys2, SEQ ID NO 234",−9.3%
same,KiNativ inhibition,"[2]; JNK1, JNK2, JNK3, Lys2, SEQ ID NO 276",31.5%
same,KiNativ inhibition,"[2]; KSR1, KSR2, Activation Loop, SEQ ID NO 280",1.4%
same,KiNativ inhibition,"[2]; MAP2K1, MAP2K2, Lys1, SEQ ID NO 289",9.4%
same,KiNativ inhibition,"[2]; MAP2K1, MAP2K2, Lys2, SEQ ID NO 290",2.2%
same,KiNativ inhibition,"[2]; MAP3K2, MAP3K3, Lys2, SEQ ID NO 299",8.4%
same,KiNativ inhibition,"[2]; MARK2, MARK3, Lys2, SEQ ID NO 304",−15.6%
same,KiNativ inhibition,"[2]; MARK3, MARK4, Lys1, SEQ ID NO 306",−7.5%
same,KiNativ inhibition,"[2]; MAST1, MAST2, Lys2, SEQ ID NO 308",−24.8%
same,KiNativ inhibition,"[2]; MER, TYRO3, Activation Loop, SEQ ID NO 313",21.2%
same,KiNativ inhibition,"[2]; MST4, YSK1, Lys2, SEQ ID NO 325",−2.4%
same,KiNativ inhibition,"[2]; MYO3A, MYO3B, Lys2, SEQ ID NO 326",22.9%
same,KiNativ inhibition,"[2]; NEK6, NEK7, Lys2, SEQ ID NO 333",−1.8%
same,KiNativ inhibition,"[2]; PCTAIRE2, PCTAIRE3, Lys1, SEQ ID NO 346",72.9%
same,KiNativ inhibition,"[2]; PI4KA, PI4KAP2, ATP, SEQ ID NO 353",2.1%
same,KiNativ inhibition,"[2]; PKCa, PKCb, Lys2, SEQ ID NO 364",−86.4%
same,KiNativ inhibition,"[2]; ROCK1, ROCK2, Lys2, SEQ ID NO 377",−0.2%
same,KiNativ inhibition,"[2]; RSK1 domain1, RSK2 domain1, RSK3 domain1, Lys2, SEQ ID NO 379",−25.1%
same,KiNativ inhibition,"[2]; SRPK1, SRPK2, Lys1, SEQ ID NO 391",−38.7%
same,KiNativ inhibition,"[2]; TAO1, TAO3, Lys2, SEQ ID NO 396",87.1%
same,KiNativ inhibition,"[2]; Wnk1, Wnk2, Wnk3, Lys2, SEQ ID NO 406",−1.1%
same,KiNativ inhibition,"[2]; Wnk1, Wnk2, ATP Loop, SEQ ID NO 405",11.2%
same,KiNativ inhibition,"[2]; ZC1/HGK, ZC2/TNIK, ZC3/MINK, Lys2, SEQ ID NO 410",57.5%
same,KiNativ inhibition,"[2]; p38d, p38g, Lys2, SEQ ID NO 341",51.5%
